Entries after “also recorded” stand apart in the source; their conditions may differ.

For series [1] the following is noted: cited from earlier work; for emission maxima: literature values.
Series [2] is described as follows: Phenolic pKa and phenol/phenolate absorbance of fluorophores. It is filed as physicochemical. As to conditions: for pKa: phenolic proton of free fluorophore. How it is done: The pKa of DFHBI was calculated using the presence of the distinct phenol and phenolate absorbance peaks. […] This dramatic reduction in […] would ensure that a majority of fluorophore molecules would now be in the phenolate form at physiological pH.

The nature of series [3]: Fluorescence of aptamer-DFHBI complexes. It is filed as biochemical. As to conditions: unchanged between unbound and bound fluorophore. The source says: The addition of the fluoro groups appeared to cause a slight blue shift in the fluorescence with excitation and emission maxima at 460 nm and 500 nm, respectively (FIG. 12A). […] Thus, further characterization was only carried out on these two brightest clones. […] This increased brightness derived mainly from an increase in the quantum yield from 0.08 for DMHBI-RNA complexes to over 0.6 for DFHBI-RNA complexes. The extinction coefficient for DFHBI remained unchanged between unbound and bound fluorophore: 26,000 M^−1cm^−1.
Equimolar solutions of 24-1-DFHBI complex and eGFP were prepared to measure their relative fluorescence intensity. […] Mg^2+ ion requirement, on the other hand, is much greater for 24-1 and 24-2 than for 13-2 (FIG. 12D). Both 24-1 and 24-2 are optimally fluorescent at 25 mM MgCl2 with only a subtle decrease when the concentration is dropped to 5 mM (the concentration used for SELEX). However, dropping MgCl2 concentration from 5 mM to a more physiological concentration of 0.5 mM results in a 50% drop in fluorescence for both aptamers. Further decreasing the MgCl2 concentration completely abolishes 24-1 fluorescence at ˜0.01 mM, while 24-2 levels out at ˜45% intensity at 0.01 mM MgCl2.

A short description of series [4]: Fluorescence of free fluorophore (ethanol glass, glycerol viscosity). It is filed as physicochemical. An excerpt:
In GFP, the chromophore is held inside the protein β-barrel structure and rigidified by direct interactions with over a dozen amino acid residues (FIG. 1C). This inflexible positioning of the chromophore by the protein is the reason for its large fluorescent quantum yield. Similarly, the synthetic GFP chromophores 4-hydroxybenzilidene-1,2-dimethyl-imidazol-5-one (“HBDI”) is capable of bright fluorescence only when rigidified by solidified solvents (Niwa et al., “Chemical Nature of the Light Emitter of the Aequorea Green Fluorescent Protein,” Proc. Nat'l Acad. Sci. USA 93:13617-13622 (1996), which is hereby incorporated by reference in its entirety). […] As an initial experiment DMHBI was first dissolved in ethanol and frozen in liquid nitrogen to create an ethanol glass matrix.
To more precisely determine the effect of immobilization on DMHBI fluorescence, 10 μM DMHBI in aqueous buffer was prepared and its fluorescence spectrum was measured in increasing concentrations of glycerol. Because glycerol is known to affect the viscosity of aqueous solutions in a predictable manner, the effect of increasing viscosity on DMHBI fluorescence can be readily measured. An increase in fluorescence intensity with increasing concentrations of glycerol was observed (FIG. 2B).
This is in agreement with previously reported data of the fluorescence spectrum of synthetic GFP chromophore, which is incapable of the excited-state proton transfer reaction that is responsible for green emission spectra found in the GFP protein. […] The reason for this is that the phenolic moiety of the chromophore remains protonated at neutral pH and in the context of the original protein. Deprotonation to the phenolate results in an excitation maxima at ˜475 nm.
Additionally, DFHBI was nonfluorescent when administered to HEK 293 cells, proving its utility for methods involving live cells.

The test system of series [5] is HEK 293 cells. Kind of series: Non-specific fluorescence of dyes in HEK 293 cells. As to conditions: for non-specific fluorescence in cells: 10 μM, epifluorescent microscope. It is filed as cell-based. How it is done: Previous studies to utilize conditionally fluorescent RNA binding dyes had focused on triphenylmethane scaffold dyes such as malachite green. However, these studies were halted by the discovery that many of these conditionally fluorescent dyes could interact with cellular components causing the cells to nonspecifically fluoresce. To determine whether the fluorophores of the present invention would be nonspecifically fluorescent in cells, HEK 293 cells were incubated with 10 μM DMHBI and visualized using an epifluorescent microscope.

A short description of series [6]: Dissociation constant of aptamer-DMHBI complexes by fluorescence titration. It is filed as binding. The source says:
The first step in characterizing the interaction between fluorescence-inducing aptamers of DMHBI was to determine their binding affinities. Because binding of the RNA to DMHBI results in fluorescence, the dissociation constant (Kd) was obtained by titrating increasing amounts of DMHBI to a solution of the aptamer. To correct for any increases in DMHBI background fluorescence, measurements of DMHBI alone at the same concentrations were taken and subtracted from the binding data. These measurements were then used to extrapolate RNA-fluorophore dissociation constants. DMHBI bound to both 3-6 and 13-2 with roughly equal dissociation constants of 500 nM (FIG. 5A).

For series [7], the system named is aptamer 13-2. Kind of series: Quantum yield, extinction coefficient and brightness of DMHBI alone and with aptamer 13-2. It is filed as physicochemical. How it is done: Lucifer Yellow and Cascade Yellow, two fluorophores with known quantum yields, were used as standards and the relative slope changes in the curve depicting absorbance vs. total fluorescence were compared. Values were calculated for DMHBI alone and DMHBI with aptamer 13-2 to identify the underlying reason for fluorescence increase. […] Quantum yield, however, increased enormously from 0.0006 for DMHBI alone to 0.08 for the aptamer-DMHBI complex—an over 100-fold increase. Total brightness, measured as the product of extinction coefficient and quantum yield, went from 0.008 to 1.23 (150-fold). […] More importantly, the fold-increases in both quantum yield and brightness are more than sufficient for detection of the aptamer-fluorophore complex.

A short description of series [8]: ATP-dependent fluorescent sensor from aptamer 13-2 with DMHBI. It is filed as biochemical. The source says:
FIGS. 22A-B illustrate the design of a fluorescent ATP sensor using aptamer 13-2. FIG. 22A illustrates how aptamer 13-2 (nt 4-60 of SEQ ID NO: 3, structure from mFOLD, left) was modified by fusing it to a previously-described ATP-aptamer (see structure on right). An unstable stem was fused from the ATP aptamer to 13-2 at the stem A entry point, generating the sensor of SEQ ID NO: 62. FIG. 22B confirms that the fused aptamer construct can be used as an ATP-dependent fluorescent sensor. In the absence of ATP, there is minimal fluorescence, even in the presence of DMHBI (lower curve). However, after addition of 1 mM ATP, the fluorescence increases nearly 30-fold (upper curve).
The mutagenesis studies described in Example 8 confirmed that stem loop A of aptamer 13-2 (see FIG. 22A) could be mutated as long as a stem-forming sequence was retained. Using the same approach identified in Example 17 (for aptamer 24-1), stem-loop A was used as an entry point for introducing an ATP aptamer along with stem destabilization.

[9] abbreviates: highly viscous solutions, pH 7.4.

Take “4-hydroxybenzylidene-1-methyl-2-penta-1,3-dien-1-yl-imidazolinone [reference compound]”: in series [1], the emission maxima is listed as 523 nm.

In general, pKa refers to the pH at which an ionisable group is half protonated. Higher therefore signals a group that holds its proton tightly. Take `CC1=N/C(=C\c2cc(F)c(O)c(F)c2)C(=O)N1C` [DFHBI, 4-(3,5-difluoro-4-hydroxybenzylidene)-1,2-dimethyl-imidazol-5-one]: in series [2], the “absorbance maximum, phenol” value stood at 363 nm; the “absorbance maximum, phenolate” value is reported as 420 nm; the pKa was roughly 6. Further, the extinction coefficient in series [3] was 26,000 M^−1cm^−1. Also, in series [4], the “fluorescence in ethanol glass and at high glycerol concentrations” value was “robustly fluorescent”; the “fluorescence in non-viscous solutions” value is listed as “negligible fluorescence”. Also, the “fluorescence when administered to cells” value in series [5] was “nonfluorescent”.

The Kd is the free concentration of one partner at which half of the binding sites on the other are occupied at equilibrium, for simple one-to-one binding. In turn, `COc1cc(/C=C2\N=C(C)N(C)C2=O)cc(OC)c1O` [DMHBI, 4-(4-hydroxy-3,5-dimethoxybenzylidene)-1,2-dimethyl-imidazol-5-one] registered a fraction deprotonated in series [2] (pH 8) of roughly 50%. The Kd in series [6] (aptamer not named, read-out: Kd of the complex (RNA-bound DMHBI)) was 500 nM. Besides, in series [6] (inferred from Kd assuming diffusion-limited association rates), the “dissociation τ1/2” value is less than 0.1 s. For the same molecule, in series [7] (DMHBI alone), the quantum yield is recorded as 0.0006; the “total brightness (product of extinction coefficient and quantum yield)” value is 0.008. In series [7] (DMHBI bound by aptamer 13-2), the molar extinction coefficient is 15,358 M^−1cm^−1. Besides, in series [7] (aptamer-DMHBI complex), the quantum yield came to 0.08; the “total brightness (product of extinction coefficient and quantum yield)” value turned out to be 1.23. In series [7] (complex vs DMHBI alone), the “increase in quantum yield” value is “over 100 fold” and the “increase in total brightness” value was determined as 150 fold. The molar extinction coefficient in series [7] (unbound DMHBI) is listed as 13,164 M^−1cm^−1. Further, the fluorescence in glycerol result in series [4] (10 μM in aqueous buffer, 20% glycerol) is recorded as “very limited fluorescence”. In series [4] (frozen in liquid nitrogen, 77° K), the “fluorescence in ethanol glass” value is recorded as “dramatic fluorescent enhancement; also recorded: brilliantly fluorescent”. In series [4] (setting [9]), the emission peak is recorded as 460 nm and the excitation peak came out at 400 nm. Besides, the fluorescence in ethanol entry in series [4] (room temperature) is “nonfluorescent; also recorded: non-fluorescent”. Besides, in series [5], the “non-specific fluorescence in cells” value is recorded as “no increase in background fluorescence; also recorded: No non-specific fluorescence”.

For `CN(C)c1ccc(C(=C2C=CC(=[N+](C)C)C=C2)c2ccccc2)cc1` [malachite green, reference compound], the “non-specific fluorescence in cells” value in series [5] is “intensely fluorescent; also recorded: cells turn fluorescent”.

`CC1=N/C(=C\c2ccccc2O)C(=O)N1C` [o-HBDI, 4-(2-hydroxybenzylidene)-1,2-dimethyl-imidazol-5-one]: in series [2], the pKa is roughly 10. For the same molecule, the emission maxima in series [1] is recorded as 605 nm.

B1: DsRed: bright red fluorescent protein from coral (Discosoma spp.) (protein, UniProt Q9U6Y8 1-225, looked up)
Red fluorescent protein …: MRSSKNVIKEFMRFKVRMEGTVNGHEFEIEGEGEGRPYEGHNTVKLKVTKGGPLPFAWDILSPQFQYGSKVYVKHPADIPDYKKLSFPEGFKWERVMNFEDGGVVTVTQDSSLQDGCFIYKVKFIGVNFPSDGPVMQKKTMGWEASTERLYPRDGVLKGEIHKALKLKDGGHYLVEFKSIYMAKKPVQLPGYYYVDSKLDITSHNEDYTIVEQYERTEGRHHLFL
For the molecule B1, the excitation maxima in series [1] (literature value) was 558 nm. The emission maxima in series [1] is on record as 583 nm.

B2: sensor of SEQ ID NO: 62: aptamer 13-2 fused via modified stem A to an ATP-binding aptamer, used with DMHBI (nucleic acid)
chain: CUAUUUCUGGAGGGGCGCUACUGUGUGGGAAGAAACUGUGGCACUUCGGUGCCAGCGUAUGGGUGGUUGGGUGCGGUCGGAGAUAGCUCGAGCAAUGC
modifications: listed as RNA, further chemistry not given here
For the molecule B2, the “fluorescence increase after addition of ATP” value in series [8] (1 mM ATP, DMHBI present) is on record as roughly 30 fold. For the same molecule, the “molar fluorescence intensity relative to 13-2 parent aptamer” value in series [8] (ATP-bound) was roughly 20%.

These data come from patent publication US10316000B2, “Coupled recognition/detection system for in vivo and in vitro use” (Cornell University, priority 2009, dated 2019).
